Reference: patent publication US9186390B2, “Methods and uses of TIE2 binding and/or activating agents” (Sunnybrook Health Sciences Center, priority 2010, dated 2015)
Entries after “also recorded” stand apart in the source; their conditions may differ.

How the values were obtained:
chronic asthma mice = test: Chronic asthma model (ovalbumin sensitization, nebulized challenge, d42 / d62); assay type: in vivo, Balb/c mice
Experimental: (§1) (Chronic asthma model) Seven week old female Balb/c mice were injected intraperitoneally (IP) with 20 μg of chicken ovalbumin (OVA) absorbed with 1 mg aluminum hydroxide, an adjuvant known to promote the development of a Th2 response by the immune system, on day 0 (denoted by first day injection) and day 7. Full body inhaled exposure to OVA was initiated at day 21. Briefly, these treatments utilized an InExpose full body aerosol chamber (Scireq, Montreal, Canada) where a 1% OVA solution, suspended in PBS, pH 7.45, was nebulized at 0.2 mL/min with a filtered room air flow rate of 2400 mL/min for a total period of 30 minutes, 3 times a week for either 42 (FIG. 13A) or 62 days (FIG. 13B). (Acute asthma model) Seven week old female Balb/c mice were injected intraperitoneally with 50 μg of chicken OVA absorbed with 1 mg aluminum hydroxide on day 0 (denoted by first day injection) and day 7. Aqueous OVA ([…] in PBS) was delivered intranasally daily from day 20 to day 24 (FIG. 2), Vasculotide or saline vehicle (control, PBS) was delivered to the mice via IP injections.
(§2) Blood was collected from the left ventricle of anaesthetized mice into heparinized 1 cc syringes. Following collection, blood was placed into Li-heparin microtubes. Subsequently, the tubes were centrifuged at 3000 RPM for 15 minutes at 4° C. Plasma was collected from the top of the samples and frozen at −80° C. for later analysis. The remaining buffy coat and red blood cells were lysed then fixed in 1× lyse/fix buffer (BD Biosciences, Mississauga, Canada) according to manufacturer's instructions.
(§3) Twenty-four hours after last aerosol exposure and immediately following exsanguinations, tissue was dissected from neck to expose trachea. A small lateral incision was made in the trachea to allow passage of 23 gauge lavage catheter into trachea. The catheter, attached to a 3 cc syringe containing warmed Hanks buffer, was carefully passed into the lumen of the trachea. A suture was secured around the trachea with a knot to secure the catheter in place. Buffer (1 cc) was injected slowly into the lungs and fully aspirated three times. The volume of recovered buffer was recorded for each animal to facilitate calculation of BAL infiltrate.
(§4) Analysis of plasma samples generated for the asthma study was the same as that outlined for the atopic dermatitis study with one small modification. Plasma from mice used in the asthma study was diluted 1:4 instead of 1:8 for the atopic dermatitis samples.
(§5) (BAL analysis) Collected BAL fluid was centrifuged at 1000 RPM for 10 minutes at 4° C. BAL fluid was removed and collected for subsequent CBA analysis. The BAL cell pellet was lysed/fixed in 1× lyse/fix buffer according to manufacturer's instructions (BD Biosciences, Mississauga, Canada). The total number of cells contained in each sample was determined by flow cytometry using flow-set beads (Count Bright Beads, Invitrogen), to facilitate sample volume and cell count calculations. A total of 7000 beads were counted for each sample. Flow cytometry analysis was gated on FSC/SSC to eliminate debris and dead cells. Differential cell count analysis was also performed by FACS where surface marker antibodies were used as follows: eosinophils (SSC^hi FITCmed Ige^med), neutrophils (SSC^med FITC^hi Ige^med), monocytes (SSC^med CD11b^+ CD115^+) and lymphocytes (SSC^lo and CD4^+ or CD8^+). In addition to monocyte markers (SSC^med CD11b^+ CD115^+), these cell populations were further characterized using antibodies specific for Tie2, TLR4, and Ly6C. Ly6C^low and Ly6C^high further define monocytes as classical, resident monocytes or inflammatory monocytes, respectively. Identified neutrophils were further labelled with antibodies to Tie2 and TLR4. All cell suspensions were incubated with purified anti-CD16/CD32 mAb (BD Biosciences, Mississauga, ON, Canada) to block non-specific background caused by Fc receptors, followed by incubation with the specific antibodies. […]

[1] = Vasculotide-specific ELISA of circulating Vasculotide in mouse plasma; assay type: in vivo, CD1 mice; settings: for circulating level in plasma after oral delivery: 2 μg P.O. (gavage)
From the text: Several monoclonal antibodies have been raised against the modified T7 peptide. These antibodies have been extensively validated and used to develop an ELISA which is capable of measuring picogram quantities of Vasculotide in mouse plasma or serum. There is an excellent linear relationship between ELISA signal and Vasculotide concentration with little interference from mouse plasma/serum proteins (FIG. 1C).
The developed ELISA was used to track circulating levels of Vasculotide in the plasma of mice over time. […] The incongruence of these findings is likely due to a paucity of sensitivity in the ELISA-based detection of Vasculotide.

Eo/B progenitors = test: Modulation of eosinophil/basophil progenitors (Eo/B-CFU); assay type: cell-based; settings: preliminary data
Experimental: Thus, Eo/B from mice and healthy donors are isolated. Eosinophils from the periphery or bone marrow are enriched by magnetic bead sorting using anti CD125 (IL-5Ra) conjugated to magnetic particles. These cells preparations are stimulated with either recombinant Ang1 or Vasculotide and different cellular parameters are measured, including cellular growth, apoptosis, migration and Tie2-specific cellular signaling.
To examine the effect of Vasculotide on Eo/B progenitors, bone marrow colony assays are performed. Human bone marrow preparations are purchased from Stem Cell Technologies (Vancouver, BC) and murine bone marrow are obtained by flushing femurs of normal mice. Non-adherent mononuclear cells are cultured in MethoCult supplemented with IL-5 to optimize for eosinophil/basophil colony formation (Eo/B-CFU). […] The appearance of Eo/B-CFU is measured.
Eo/Bs and their progenitors are harvested from Vasculotide treated asthmatic animals from the periphery or bone marrow. In order to establish an Eo/B cellular profile treated and non-treated animals are harvested on week 1, 2, 4 and 6 and the number of Eo/Bs in the periphery, bone marrow and progenitors is determined. The number of peripheral and bone marrow eosinophils is determined by flow cytometry analysis using Ly6G, CD11b, IgE and free FITC markers. Eo/B progenitors in the bone marrow are measured by Eo/B-CFU assay.

acute asthma mice = test: Acute asthma model (ovalbumin sensitization, intranasal challenge); assay type: in vivo, Balb/c mice
Experimental: as §1, §2, §3, §4, §5

[2] = chronic asthma, sustained effect

With “Vasculotide: Modified T7 peptide (CHHHRHSF, SEQ ID NO:2) conjugated to 10 kDa tetrameric polyethylene glycol-maleimide; Tie2 binding peptide mimetic” the “Tie2 levels in BAL neutrophils” value (chronic asthma mice; asthmatic mice, flow cytometry) was “unchanged”, the BAL neutrophil count (chronic asthma mice; chronic asthma, d42) was “unchanged” and the BAL eosinophil numbers (chronic asthma mice; chronic asthma, d42 and d62) was “significantly decreased; also recorded: statistical reduction”. For the same substance, the “BAL monocyte infiltration / absolute number of monocytes” value (chronic asthma mice; chronic asthma, d42 and d62) was “significantly decreased; also recorded: statistical reduction”, the “inflammatory monocytes (Ly6C+) in BAL” value (chronic asthma mice; chronic asthma, d42 and d62) was “decreased” and the “absolute number of peripheral blood mononuclear cells” value (chronic asthma mice; chronic asthma, d42 or d62, did not reach significance) was “clear trend toward a reduction”. For the same substance, the BAL neutrophil count (chronic asthma mice; chronic asthma, d62) was “slight increase”, the BAL neutrophil count (chronic asthma mice; chronic asthma, d62, listed as Vsaculotide) was “very small increase” and the BAL lymphocytes (chronic asthma mice; chronic asthma, day 42 and day 62) was “statistical reduction”. For the same substance, the “plasma IL-5 (cytometric bead array)” value (chronic asthma mice; [2]) was “decreasing”, the “plasma RANTES (cytometric bead array)” value (chronic asthma mice; [2]) was “decreasing” and the “plasma TNF (cytometric bead array)” value (chronic asthma mice; [2]) was “decreasing”. For the same substance, the “reduction of total absolute BAL counts” value (chronic asthma mice; d42 chronic asthma model, systemic (IP) treatment, flow cytometry) was 45%, the “TLR4 expression on BAL eosinophils (mean fluorescence intensity)” value (chronic asthma mice; d42 chronic asthma, PBS 166) was 758 MFI and the “cell surface level of Tie2 on BAL eosinophils (mean fluorescence intensity)” value (chronic asthma mice; d42 chronic asthma, PBS 566) was 205 MFI. For the same substance, the “decrease in lung collagen deposition (Masson's trichrome, % blue positive area)” value (chronic asthma mice; d62 chronic asthma, vs PBS) was 4 fold, the “TLR4 expression on BAL eosinophils (mean fluorescence intensity)” value (chronic asthma mice; d62 chronic asthma, PBS 118) was 132 MFI and the “time up to which significant levels of circulating Vasculotide are detected by ELISA” value ([1]; 2 μg I.P., p=0.0149 PBS vs Vasc) was “up to 24 hours”. The “circulating level in plasma after oral delivery” value [1] was “no significant levels”, the “circulating level in plasma after oral delivery” value ([1]; listed as Vasc-PEG) was “did not result in any detectable levels” and the “circulating level in plasma at 24 hours post injection” value ([1]; I.P., unpaired student t-test vs PBS) was “statistically detectable level”. The “effect on Eo/B progenitors” value (Eo/B progenitors) was “impacts the Eo/B progenitors directly”, the “classical monocytes (Ly6C−) in BAL” value (acute asthma mice; acute asthma, d24) was “increased” and the “number of peripheral blood mononuclear cells” value (acute asthma mice; acute asthma, d24) was “prevented a significant increase”. For the same substance, the “plasma IL-4 (cytometric bead array)” value (acute asthma mice; acute asthma, d24) was “decreased”, the “plasma IL-5 (cytometric bead array)” value (acute asthma mice; acute asthma, d24) was “decreased” and the “plasma IL-13 (cytometric bead array)” value (acute asthma mice; acute asthma, d24) was “decreased”. The “plasma MCP-1 (cytometric bead array)” value (acute asthma mice; acute asthma, d24) was “decreased”, the “plasma MIP1α (cytometric bead array)” value (acute asthma mice; acute asthma, d24) was “decreased” and the “plasma MIP1β (cytometric bead array)” value (acute asthma mice; acute asthma, d24) was “decreased”. The “plasma RANTES (cytometric bead array)” value (acute asthma mice; acute asthma, d24) was “decreased”, the “plasma TNF (cytometric bead array)” value (acute asthma mice; acute asthma, d24) was “decreased” and the “inflammatory monocytes (Ly6C+) in BAL” value (acute asthma mice; acute asthma, d24, vs PBS asthmatic controls) was “significantly fewer; also recorded: decreased”. The “BAL eosinophil absolute counts” value (acute asthma mice; acute asthma, day 24) was “reduced; also recorded: statistical reduction”, the “BAL number of lymphocytes” value (acute asthma mice; acute asthma, day 24) was “did not affect; also recorded: non-statistical trend towards decreased” and the “BAL number of monocytes” value (acute asthma mice; acute asthma, day 24) was “did not affect”. The “BAL number of neutrophils” value (acute asthma mice; acute asthma, day 24) was “did not affect; also recorded: non-statistical trend towards decreased”, the “reduction of total absolute BAL counts” value (acute asthma mice; acute asthma, systemic (IP) treatment, flow cytometry) was 25% and the “BAL cell numbers in the absence of asthma” value (acute asthma mice; non-asthmatic mice) was “no effect”.
